Data taken from US4863935A, “Mitomycin compounds having useful anti-tumor activity” (priority 1986, dated 1989).

Key:
Sarcoma 180 solid tumour = assay: ED50 against Sarcoma 180 solid tumour implanted in mice; type: in vivo, male mouse (ddy strain); settings: for (CI)c: (CI of test compound)/(CI of mitomycin C), CI = LD50/ED50; for ED50: Mus musculus, Sarcoma-180, iv, 168 h, i.v. (tail vein) 24 h after implantation, tumour volume at 7 days, dose for T/C of 0.5
From the text: With regard to the so-called chemotherapeutic index viz. the CI value against sarcoma 180 solid tumour, expressed by the formula: […]
(§1) As used herein, the term "LD50 " denotes the acute toxicity. The term "ED50 " denotes the administered amount needed for reducing the volume of Sarcoma 180 solid tumours in animals to 50% of the corresponding tumour volume in control (untreated) animals. The term "WBC4000 " denotes the minimum dose of the drug needed to reduce the number of peripheral leucocytes to 4000/mm^3. A greater TI value results in a broader tolerance to the drug, which is advantageous for higher anti-tumour activity and decreased toxicity. The term "T" used herein denotes the average survival days of the test animals administered with the test compound. The term "C" denotes the average survival days of the control (untreated) animals. The term "OPD" denotes the dose of the drug resulting in the highest survival ratio. The term "ILS30 " denotes a 30% increase of life-span.
the term (CI)c denotes (CI of the test compound)/(CI of mitomycin C), and
5×10^6 sarcoma 180 solid tumor cells were abdominally implanted into ddy mice. 7 days after this, ascites cells were sampled. The cells were washed once with a sterilized physiological saline and were used to prepare a cell suspension containing 5×10^7 cells per ml of a sterilized physiological saline. On each occasion, 0.1 ml of the cell suspension was subcutaneously implanted under the skin of the right armpit of a male mouse (ddy strain; body weight 20±2 g). The test compound which was dissolved in a physiological saline with or without addition of Tween 80 was injected into the tail vein of each animal of a group consisting of 5 mice at a dose of 0.1-0.2 ml 24 hours after the implantation of the tumor cells.
The anti-tumor activity was determined in the following manner:
7 days after the implantation, the major axis (a) and the minor axis (b) of the tumour were measured to calculate a value of (a×b^2)/2 which corresponds to the volume of the tumour. The antitumour activity was expressed by the ratio of the volume of the tumour (T) of the group of animals administered with the test compound to the corresponding volume of tumours (C) of the untreated animals.
On graph paper, T/C was plotted on the ordinate using an arithmetic scale and the administered amount of test compound was plotted on the abscissa using a logarithmic scale. The relationship between the dose and T/C was shown by a straight line determined by the method of least squares, from which ED50 viz. a dose corresponding to T/C of 0.5 was obtained.

[1] = LD50 acute toxicity, ddy mice, single abdominal injection; settings: mouse, in vivo, ip, 5 ddy mice, 14 days observation, Behrens-Koerber's method
From the text: as §1
LD50, ED50 and WBC4000 were respectively determined as follows:
Each animal of the test group, consisting of 5 ddy mice, was administered once with a test compound by abdominal injection. […] To determine the LD50 value, Behrens-Koerber's method was applied.

[2] = test system: lymphocytic Leukemia P-388; assay: Anti-tumour activity against lymphocytic Leukemia P-388 in mice; type: in vivo, mouse, female of CDF strain
From the text: Also, their therapeutic indexes, expressed by the formula:
TI=(OPD)/(dose which results in ILS30),
against lymphocytic Leukemia P-388 and the maximum increased life spans (ILSmax), defined by the formula: […]
as §1
The experiment was carried out in the following manner. 1×10^6 lymphocytic Leukemia P-388 tumour cells were abdominally implanted into each mouse of a group consisting of 5 mice (body weight about 22 g; female of CDF strain). 24 hours after implantation, a physiological saline solution (0.2 ml) containing the test compound with or without addition of Tween 80 was abdominally given to the test animal.
Table 7 indicates anti-tumour activities of selected Compounds (I) against lyphocytic Leukemia P-388.

Row | Compound | (CI)c (Sarcoma 180 solid tumour) | ED50 (Sarcoma 180 solid tumour) | LD50 at 336 h [1] | (ILSmax)c ([2]; (ILSmax of test compound)/(ILSmax of mitomycin C), ILS=(T-C)/C×100) | (TI)c ([2]; (TI of test compound)/(TI of mitomycin C), TI = OPD/dose which results in ILS30) | ED (optimal dose, highest survival) ([2]; Mus musculus, P388, ip, dose resulting in the highest survival ratio, i.p. 24 h after implantation, 30 days, read-out: OPD) | ED (30% increase of life-span) ([2]; Mus musculus, P388, ip, 30% increase of life-span, i.p. 24 h after implantation, read-out: Dose needed to give ILS30)
1 | CO[C@@]12[C@H](COC(N)=O)C3=C(C(=O)C(C)=C(NCCSCOC(=O)NCCC(=O)OC(C)(C)C)C3=O)N1C[C@@H]1N[C@@H]12 [Compound 2, 7-N--[2-(2-t-butoxycarbonylethyl)aminocarbonyloxymethylthioethyl]mitomycin C] | 1.44 | 11.2 mg/kg | 45 mg/kg | – | – | – | –
2 | CO[C@@]12[C@H](COC(N)=O)C3=C(C(=O)C(C)=C(NCCSC(=O)NCCC(=O)OCc4ccccc4)C3=O)N1C[C@@H]1N[C@@H]12 [Compound 3, 7-N--[2-(2-benzyloxycarbonylethyl)aminocarbonylthioethyl]mitomycin C] | > 0.89 | 39.6 mg/kg | > 100 mg/kg | – | – | – | –
3 | CO[C@@]12[C@H](COC(N)=O)C3=C(C(=O)C(C)=C(NCCSC(=O)N(C)C)C3=O)N1C[C@@H]1N[C@@H]12 [Compound 8, 7-N--(2-dimethylaminocarbonylthioethyl)mitomycin C] | 0.65 | 14.4 mg/kg | 26.3 mg/kg | – | – | – | –
4 | CO[C@@]12[C@H](COC(N)=O)C3=C(C(=O)C(C)=C(NCCSC(=O)NC(CC(=O)OCc4ccccc4)c4ccccc4)C3=O)N1C[C@@H]1N[C@@H]12 (stereo partly shown) [Compound 10, 7-N--[2-(1-phenyl-2-benzyloxycarbonylethyl)aminocarbonylthioethyl]mitomycin C] | > 0.43 | 95.5 mg/kg | > 100 mg/kg | – | – | – | –
5 | CO[C@@]12[C@H](COC(N)=O)C3=C(C(=O)C(C)=C(NCCSC(=O)N4CCC[C@H]4C(=O)OCc4ccccc4)C3=O)N1C[C@@H]1N[C@@H]12 [Compound 16, 7-N--[2-((S)--2-benzyloxycarbonylpyrrolidino)-carbonylthioethyl]mitomycin C] | > 0.45 | 84.4 mg/kg | > 100 mg/kg | – | – | – | –
6 | CNC(=O)[C@@H]1CCCN1C(=O)SCCNC1=C(C)C(=O)C2=C(C1=O)[C@@H](COC(N)=O)[C@@]1(OC)[C@H]3N[C@H]3CN21 [Compound 17, 7-N--[2-((S)--2-methylaminocarbonylpyrrolidino)-carbonylthioethyl]mitomycin C] | 1.32 | 21.7 mg/kg | 75 mg/kg | – | – | – | –
7 | CO[C@@]12[C@H](COC(N)=O)C3=C(C(=O)C(C)=C(NCCSC(=O)N4CCC[C@H]4C(=O)N(C)C)C3=O)N1C[C@@H]1N[C@@H]12 [Compound 18, 7-N--[2-((S)--2-dimethylaminocarbonylpyrrolidino)carbonylthioethyl]mitomycin C] | 3.02 | 12.3 mg/kg | 97.5 mg/kg | – | – | – | –
8 | CO[C@@]12[C@H](COC(N)=O)C3=C(C(=O)C(C)=C(NCCSC(=O)N4CCC[C@H]4C(N)=O)C3=O)N1C[C@@H]1N[C@@H]12 [Compound 19, 7-N--[2-((S)--2-carbamoylpyrrolidino)carbonylthioethyl]mitomycin C] | 1.46 | 19.6 mg/kg | 75 mg/kg | – | – | – | –
9 | CO[C@@]12[C@H](COC(N)=O)C3=C(C(=O)C(C)=C(NCCSC(=O)N4CCCC4)C3=O)N1C[C@@H]1N[C@@H]12 [Compound 21, 7-N--(2-pyrrolidinocarbonylthioethyl)mitomycin C] | 1.44 | 8.4 mg/kg | 37.5 mg/kg | – | – | – | –
10 | CNC(=S)SCCNC1=C(C)C(=O)C2=C(C1=O)[C@@H](COC(N)=O)[C@@]1(OC)[C@H]3N[C@H]3CN21 [Compound 25, 7-N--(2-methylaminothiocarbonylthioethyl)mitomycin C] | 1.96 | 10.5 mg/kg | 52.5 mg/kg | – | – | – | –
11 | CCCCNC(=O)SCCNC1=C(C)C(=O)C2=C(C1=O)[C@@H](COC(N)=O)[C@@]1(OC)[C@H]3N[C@H]3CN21 [Compound 28, 7-N--(2-n-butylaminocarbonylthioethyl)mitomycin C] | 1.73 | 9.9 mg/kg | 43.8 mg/kg | – | – | – | –
12 | CO[C@@]12[C@H](COC(N)=O)C3=C(C(=O)C(C)=C(NCCSC(=O)N4CCOCC4)C3=O)N1C[C@@H]1N[C@@H]12 [Compound 33, 7-N--(2-morpholinocarbonylthioethyl)mitomycin C] | 1.23 | 17.8 mg/kg | 52.5 mg/kg | – | – | – | –
13 | CO[C@@]12[C@H](COC(N)=O)C3=C(C(=O)C(C)=C(NCCSC(=O)NC(C)(C)C(=O)OC(C)(C)C)C3=O)N1C[C@@H]1N[C@@H]12 [Compound 34, 7-N--[2-(1-methyl-1-t-butoxycarbonylethyl)-aminocarbonylthioethyl]mitomycin C] | 1.14 | 13.7 mg/kg | 37.5 mg/kg | – | – | – | –
14 | CO[C@@]12[C@H](COC(N)=O)C3=C(C(=O)C(C)=C(NCCSC(=O)N(C)NC=O)C3=O)N1C[C@@H]1N[C@@H]12 [Compound 35, 7-N--[2-(1-methyl-2-formylhydrazino)carbonylthioethyl]mitomycin C] | 1.30 | 27.9 mg/kg | 105 mg/kg | – | – | – | –
15 | CO[C@@]12[C@H](COC(N)=O)C3=C(C(=O)C(C)=C(NCCSC(=S)NC4CCCCC4)C3=O)N1C[C@@H]1N[C@@H]12 [Compound 37, 7-N--(2-cyclohexylaminothiocarbonylthioethyl)mitomycin C] | 0.73 | 23.5 mg/kg | 41.3 mg/kg | – | – | – | –
16 | CC1=C(NCCSC(=S)NC2CCCCC2)C(=O)C2=C(C1=O)N1C[C@H]3[C@H](N3C)[C@]1(O)[C@H]2COC(N)=O (stereo partly shown) [Compound 38, 7-N--(2-cyclohexylaminothiocarbonylthioethyl)mitomycin D] | 0.79 | 39.5 mg/kg | 75 mg/kg | – | – | – | –
17 | CCCNC(=S)SCCNC1=C(C)C(=O)C2=C(C1=O)[C@@H](COC(N)=O)[C@@]1(OC)[C@H]3N[C@H]3CN21 [Compound 40, 7-N--(2-n-propylaminothiocarbonylthioethyl)mitomycin C] | > 1.03 | 10.1 mg/kg | > 25 mg/kg | – | – | – | –
18 | CO[C@@]12[C@H](COC(N)=O)C3=C(C(=O)C(C)=C(NCCSC(=O)N4CCC(Cc5ccccc5)CC4)C3=O)N1C[C@@H]1N[C@@H]12 [Compound 41, 7-N--[2-(4-benzylpiperidino)carbonylthioethyl]mitomycin C] | 1.37 | 13.7 mg/kg | 41.3 mg/kg | – | – | – | –
19 | CO[C@@]12[C@H](COC(N)=O)C3=C(C(=O)C(C)=C(NCCSC(=O)N4CCCCC4)C3=O)N1C[C@@H]1N[C@@H]12 [Compound 42, 7-N--(2-piperidinocarbonylthioethyl)mitomycin C] | 1.14 | 9.34 mg/kg | 33.8 mg/kg | – | – | – | –
20 | CO[C@@]12[C@H](COC(N)=O)C3=C(C(=O)C(C)=C(NCCSC(=O)N4CCC(O)CC4)C3=O)N1C[C@@H]1N[C@@H]12 [Compound 43, 7-N--[2-(4-hydroxypiperidino)carbonylthioethyl]mitomycin C] | 2.17 | 9.15 mg/kg | 52.5 mg/kg | – | – | – | –
21 | COC(=O)[C@@H]1CC(O)CN1C(=O)SCCNC1=C(C)C(=O)C2=C(C1=O)[C@@H](COC(N)=O)[C@@]1(OC)[C@H]3N[C@H]3CN21 (stereo partly drawn) [Compound 44, 7-N--[2-((S)--2-methoxycarbonyl-(SR)-4-hydroxypyrrolidino)carbonylthioethyl]mitomycin C] | > 1.85 | 27.5 mg/kg | > 100 mg/kg | – | – | – | –
22 | CO[C@@]12[C@H](COC(N)=O)C3=C(C(=O)C(C)=C(NCCSC(=S)NC(c4ccccc4)c4ccccc4)C3=O)N1C[C@@H]1N[C@@H]12 [Compound 50] | – | – | – | > 2.39 | 1.10 | 12.5 mg/kg | 0.74 mg/kg
